# Experiment: The drug is tested on Bifidobacterium ruminantium strain: fecal isolate for biotransformation. The drug concentrations were measured before and after a 12-h incubation by liquid-chromatography-coupled mass spectrometry (LC–MS)
# Conditions: 2 µM
row,SMILES,Bacterial Biotransformation
1,OC(CCN1CCCCC1)(c1ccccc1)C1CCCCC1 (configuration not stated) [TRIHEXYPHENIDYL],Compound metabolized
2,O=P(O)(O)O.c1ccc(CN(CC2=NCCN2)c2ccccc2)cc1 [ANTAZOLINE PHOSPHATE],Compound NOT metabolized
3,COc1ccc(C(CN(C)C)C2(O)CCCCC2)cc1 (configuration not stated) [VENLAFAXINE],Compound NOT metabolized

# Experiment: The drug is tested on Alistipes indistinctus strain: DSM22520 for biotransformation. The drug concentrations were measured before and after a 12-h incubation by liquid-chromatography-coupled mass spectrometry (LC–MS)
# Conditions: 2 µM
row,SMILES,Bacterial Biotransformation
1,COc1ccc(C(CN(C)C)C2(O)CCCCC2)cc1 (configuration not stated) [VENLAFAXINE],Compound NOT metabolized

# Experiment: The drug is tested on Bacteroides fragilis strain: HMW615 for biotransformation. The drug concentrations were measured before and after a 12-h incubation by liquid-chromatography-coupled mass spectrometry (LC–MS)
# Conditions: 2 µM
row,SMILES,Bacterial Biotransformation
1,COc1ccc(C(CN(C)C)C2(O)CCCCC2)cc1 (configuration not stated) [VENLAFAXINE],Compound NOT metabolized

# Experiment: The drug is tested on Bacteroides uniformis strain: ATCC8492 for biotransformation. The drug concentrations were measured before and after a 12-h incubation by liquid-chromatography-coupled mass spectrometry (LC–MS)
# Conditions: 2 µM
row,SMILES,Bacterial Biotransformation
1,OC(CCN1CCCCC1)(c1ccccc1)C1CCCCC1 (configuration not stated) [TRIHEXYPHENIDYL],Compound metabolized
2,CN(CCOc1ccc(CC2SC(=O)NC2=O)cc1)c1ccccn1.O=C(O)/C=C\C(=O)O (configuration not stated) [ROSIGLITAZONE MALEATE],Compound NOT metabolized
3,O=P(O)(O)O.c1ccc(CN(CC2=NCCN2)c2ccccc2)cc1 [ANTAZOLINE PHOSPHATE],Compound NOT metabolized
4,COc1ccc(C(CN(C)C)C2(O)CCCCC2)cc1 (configuration not stated) [VENLAFAXINE],Compound NOT metabolized

# Experiment: The drug is tested on Bacteroides vulgatus strain: ATCC8482 for biotransformation. The drug concentrations were measured before and after a 12-h incubation by liquid-chromatography-coupled mass spectrometry (LC–MS)
# Conditions: phocaeicola vulgatus, 2 µM
row,SMILES,Bacterial Biotransformation
1,CN(CCOc1ccc(CC2SC(=O)NC2=O)cc1)c1ccccn1.O=C(O)/C=C\C(=O)O (configuration not stated) [ROSIGLITAZONE MALEATE],Compound NOT metabolized
2,O=P(O)(O)O.c1ccc(CN(CC2=NCCN2)c2ccccc2)cc1 [ANTAZOLINE PHOSPHATE],Compound NOT metabolized
3,COc1ccc(C(CN(C)C)C2(O)CCCCC2)cc1 (configuration not stated) [VENLAFAXINE],Compound NOT metabolized

# Experiment: The drug is tested on Bacteroides xylanisolvens strain: DSM18836 for biotransformation. The drug concentrations were measured before and after a 12-h incubation by liquid-chromatography-coupled mass spectrometry (LC–MS)
# Conditions: 2 µM
row,SMILES,Bacterial Biotransformation
1,OC(CCN1CCCCC1)(c1ccccc1)C1CCCCC1 (configuration not stated) [TRIHEXYPHENIDYL],Compound NOT metabolized
2,CN(CCOc1ccc(CC2SC(=O)NC2=O)cc1)c1ccccn1.O=C(O)/C=C\C(=O)O (configuration not stated) [ROSIGLITAZONE MALEATE],Compound NOT metabolized
3,O=P(O)(O)O.c1ccc(CN(CC2=NCCN2)c2ccccc2)cc1 [ANTAZOLINE PHOSPHATE],Compound NOT metabolized
4,COc1ccc(C(CN(C)C)C2(O)CCCCC2)cc1 (configuration not stated) [VENLAFAXINE],Compound NOT metabolized

# Experiment: The drug is tested on Odoribacter splanchnicus strain: fecal isolate for biotransformation. The drug concentrations were measured before and after a 12-h incubation by liquid-chromatography-coupled mass spectrometry (LC–MS)
# Conditions: 2 µM
row,SMILES,Bacterial Biotransformation
1,CN(CCOc1ccc(CC2SC(=O)NC2=O)cc1)c1ccccn1.O=C(O)/C=C\C(=O)O (configuration not stated) [ROSIGLITAZONE MALEATE],Compound NOT metabolized
2,COc1ccc(C(CN(C)C)C2(O)CCCCC2)cc1 (configuration not stated) [VENLAFAXINE],Compound NOT metabolized

# Experiment: The drug is tested on Blautia hansenii strain: DSM20583 for biotransformation. The drug concentrations were measured before and after a 12-h incubation by liquid-chromatography-coupled mass spectrometry (LC–MS)
# Conditions: 2 µM
row,SMILES,Bacterial Biotransformation
1,OC(CCN1CCCCC1)(c1ccccc1)C1CCCCC1 (configuration not stated) [TRIHEXYPHENIDYL],Compound metabolized
2,CN(CCOc1ccc(CC2SC(=O)NC2=O)cc1)c1ccccn1.O=C(O)/C=C\C(=O)O (configuration not stated) [ROSIGLITAZONE MALEATE],Compound NOT metabolized
3,O=P(O)(O)O.c1ccc(CN(CC2=NCCN2)c2ccccc2)cc1 [ANTAZOLINE PHOSPHATE],Compound NOT metabolized

# Experiment: The drug is tested on Clostridium sporogenes strain: ATCC15579 for biotransformation. The drug concentrations were measured before and after a 12-h incubation by liquid-chromatography-coupled mass spectrometry (LC–MS)
# Conditions: 2 µM
row,SMILES,Bacterial Biotransformation
1,CN(CCOc1ccc(CC2SC(=O)NC2=O)cc1)c1ccccn1.O=C(O)/C=C\C(=O)O (configuration not stated) [ROSIGLITAZONE MALEATE],Compound NOT metabolized
2,O=P(O)(O)O.c1ccc(CN(CC2=NCCN2)c2ccccc2)cc1 [ANTAZOLINE PHOSPHATE],Compound NOT metabolized
3,COc1ccc(C(CN(C)C)C2(O)CCCCC2)cc1 (configuration not stated) [VENLAFAXINE],Compound NOT metabolized

# Experiment: The drug is tested on Coprococcus comes strain: ATCC27758 for biotransformation. The drug concentrations were measured before and after a 12-h incubation by liquid-chromatography-coupled mass spectrometry (LC–MS)
# Assay type: ADME
# Set-up: dose 2 uM, timepoint 0 vs 12 hours
# Conditions: 2 µM
row,SMILES,Bacterial Biotransformation
1,OC(CCN1CCCCC1)(c1ccccc1)C1CCCCC1 (configuration not stated) [TRIHEXYPHENIDYL],Compound NOT metabolized
2,CN(CCOc1ccc(CC2SC(=O)NC2=O)cc1)c1ccccn1.O=C(O)/C=C\C(=O)O (configuration not stated) [ROSIGLITAZONE MALEATE],Compound NOT metabolized
3,O=P(O)(O)O.c1ccc(CN(CC2=NCCN2)c2ccccc2)cc1 [ANTAZOLINE PHOSPHATE],Compound NOT metabolized

# Experiment: The drug is tested on Dorea formicigenerans strain: ATCC27755 for biotransformation. The drug concentrations were measured before and after a 12-h incubation by liquid-chromatography-coupled mass spectrometry (LC–MS)
# Conditions: 2 µM
row,SMILES,Bacterial Biotransformation
1,OC(CCN1CCCCC1)(c1ccccc1)C1CCCCC1 (configuration not stated) [TRIHEXYPHENIDYL],Compound NOT metabolized
2,CN(CCOc1ccc(CC2SC(=O)NC2=O)cc1)c1ccccn1.O=C(O)/C=C\C(=O)O (configuration not stated) [ROSIGLITAZONE MALEATE],Compound NOT metabolized
3,O=P(O)(O)O.c1ccc(CN(CC2=NCCN2)c2ccccc2)cc1 [ANTAZOLINE PHOSPHATE],Compound NOT metabolized
4,COc1ccc(C(CN(C)C)C2(O)CCCCC2)cc1 (configuration not stated) [VENLAFAXINE],Compound NOT metabolized

# Experiment: The drug is tested on Enterococcus faecalis strain: V583 for biotransformation. The drug concentrations were measured before and after a 12-h incubation by liquid-chromatography-coupled mass spectrometry (LC–MS)
# Conditions: 2 µM
row,SMILES,Bacterial Biotransformation
1,OC(CCN1CCCCC1)(c1ccccc1)C1CCCCC1 (configuration not stated) [TRIHEXYPHENIDYL],Compound NOT metabolized
2,CN(CCOc1ccc(CC2SC(=O)NC2=O)cc1)c1ccccn1.O=C(O)/C=C\C(=O)O (configuration not stated) [ROSIGLITAZONE MALEATE],Compound NOT metabolized
3,O=P(O)(O)O.c1ccc(CN(CC2=NCCN2)c2ccccc2)cc1 [ANTAZOLINE PHOSPHATE],Compound NOT metabolized
4,COc1ccc(C(CN(C)C)C2(O)CCCCC2)cc1 (configuration not stated) [VENLAFAXINE],Compound NOT metabolized

# Experiment: The drug is tested on Eubacterium ventriosum strain: ATCC27560 for biotransformation. The drug concentrations were measured before and after a 12-h incubation by liquid-chromatography-coupled mass spectrometry (LC–MS)
# Assay type: ADME
# Set-up: dose 2 uM, timepoint 0 vs 12 hours
# Conditions: 2 µM
row,SMILES,Bacterial Biotransformation
1,OC(CCN1CCCCC1)(c1ccccc1)C1CCCCC1 (configuration not stated) [TRIHEXYPHENIDYL],Compound NOT metabolized
2,CN(CCOc1ccc(CC2SC(=O)NC2=O)cc1)c1ccccn1.O=C(O)/C=C\C(=O)O (configuration not stated) [ROSIGLITAZONE MALEATE],Compound NOT metabolized
3,O=P(O)(O)O.c1ccc(CN(CC2=NCCN2)c2ccccc2)cc1 [ANTAZOLINE PHOSPHATE],Compound NOT metabolized
4,COc1ccc(C(CN(C)C)C2(O)CCCCC2)cc1 (configuration not stated) [VENLAFAXINE],Compound NOT metabolized

# Experiment: The drug is tested on Ruminococcus lactaris strain: ATCC29176 for biotransformation. The drug concentrations were measured before and after a 12-h incubation by liquid-chromatography-coupled mass spectrometry (LC–MS)
# Conditions: 2 µM
row,SMILES,Bacterial Biotransformation
1,OC(CCN1CCCCC1)(c1ccccc1)C1CCCCC1 (configuration not stated) [TRIHEXYPHENIDYL],Compound NOT metabolized
2,CN(CCOc1ccc(CC2SC(=O)NC2=O)cc1)c1ccccn1.O=C(O)/C=C\C(=O)O (configuration not stated) [ROSIGLITAZONE MALEATE],Compound NOT metabolized
3,O=P(O)(O)O.c1ccc(CN(CC2=NCCN2)c2ccccc2)cc1 [ANTAZOLINE PHOSPHATE],Compound NOT metabolized
4,COc1ccc(C(CN(C)C)C2(O)CCCCC2)cc1 (configuration not stated) [VENLAFAXINE],Compound NOT metabolized

# Experiment: The drug is tested on Ruminococcus torques strain: ATCC27756 for biotransformation. The drug concentrations were measured before and after a 12-h incubation by liquid-chromatography-coupled mass spectrometry (LC–MS)
# Assay type: ADME
# Set-up: dose 2 uM, timepoint 0 vs 12 hours
# Conditions: 2 µM
row,SMILES,Bacterial Biotransformation
1,CN(CCOc1ccc(CC2SC(=O)NC2=O)cc1)c1ccccn1.O=C(O)/C=C\C(=O)O (configuration not stated) [ROSIGLITAZONE MALEATE],Compound NOT metabolized
2,O=P(O)(O)O.c1ccc(CN(CC2=NCCN2)c2ccccc2)cc1 [ANTAZOLINE PHOSPHATE],Compound NOT metabolized
3,COc1ccc(C(CN(C)C)C2(O)CCCCC2)cc1 (configuration not stated) [VENLAFAXINE],Compound NOT metabolized

# Experiment: The drug is tested on Providencia rettgeri strain: DSM1131 for biotransformation. The drug concentrations were measured before and after a 12-h incubation by liquid-chromatography-coupled mass spectrometry (LC–MS)
# Assay type: ADME
# Set-up: dose 2 uM, timepoint 0 vs 12 hours
# Conditions: 2 µM
row,SMILES,Bacterial Biotransformation
1,CN(CCOc1ccc(CC2SC(=O)NC2=O)cc1)c1ccccn1.O=C(O)/C=C\C(=O)O (configuration not stated) [ROSIGLITAZONE MALEATE],Compound NOT metabolized
2,O=P(O)(O)O.c1ccc(CN(CC2=NCCN2)c2ccccc2)cc1 [ANTAZOLINE PHOSPHATE],Compound NOT metabolized
3,COc1ccc(C(CN(C)C)C2(O)CCCCC2)cc1 (configuration not stated) [VENLAFAXINE],Compound NOT metabolized

# Conditions: segatella copri, 12 h, 2 µM
# Description: The drug is tested on Prevotella copri strain: DSM18205 for biotransformation. The drug concentrations were measured before and after a 12-h incubation by liquid-chromatography-coupled mass spectrometry (LC–MS)
row,SMILES,Bacterial Biotransformation
1,CN(CCOc1ccc(CC2SC(=O)NC2=O)cc1)c1ccccn1.O=C(O)/C=C\C(=O)O (configuration not stated) [ROSIGLITAZONE MALEATE],Compound NOT metabolized
2,O=P(O)(O)O.c1ccc(CN(CC2=NCCN2)c2ccccc2)cc1 [ANTAZOLINE PHOSPHATE],Compound NOT metabolized
3,COc1ccc(C(CN(C)C)C2(O)CCCCC2)cc1 (configuration not stated) [VENLAFAXINE],Compound NOT metabolized

# Conditions: anaerostipes sp., 12 h, 2 µM
# Description: The drug is tested on Anaerostipes sp. strain: fecal isolate for biotransformation. The drug concentrations were measured before and after a 12-h incubation by liquid-chromatography-coupled mass spectrometry (LC–MS)
row,SMILES,Bacterial Biotransformation
1,OC(CCN1CCCCC1)(c1ccccc1)C1CCCCC1 (configuration not stated) [TRIHEXYPHENIDYL],Compound NOT metabolized
2,CN(CCOc1ccc(CC2SC(=O)NC2=O)cc1)c1ccccn1.O=C(O)/C=C\C(=O)O (configuration not stated) [ROSIGLITAZONE MALEATE],Compound NOT metabolized
3,O=P(O)(O)O.c1ccc(CN(CC2=NCCN2)c2ccccc2)cc1 [ANTAZOLINE PHOSPHATE],Compound NOT metabolized
4,COc1ccc(C(CN(C)C)C2(O)CCCCC2)cc1 (configuration not stated) [VENLAFAXINE],Compound NOT metabolized

# Conditions: roseburia intestinalis, 12 h, 2 µM
# Description: The drug is tested on Roseburia intestinalis strain: L1-82 for biotransformation. The drug concentrations were measured before and after a 12-h incubation by liquid-chromatography-coupled mass spectrometry (LC–MS)
row,SMILES,Bacterial Biotransformation
1,CN(CCOc1ccc(CC2SC(=O)NC2=O)cc1)c1ccccn1.O=C(O)/C=C\C(=O)O (configuration not stated) [ROSIGLITAZONE MALEATE],Compound NOT metabolized
2,O=P(O)(O)O.c1ccc(CN(CC2=NCCN2)c2ccccc2)cc1 [ANTAZOLINE PHOSPHATE],Compound NOT metabolized
3,COc1ccc(C(CN(C)C)C2(O)CCCCC2)cc1 (configuration not stated) [VENLAFAXINE],Compound NOT metabolized

# Conditions: akkermansia muciniphila, 12 h, 2 µM
# Description: The drug is tested on Akkermansia muciniphila strain: ATCC BAA-835 for biotransformation. The drug concentrations were measured before and after a 12-h incubation by liquid-chromatography-coupled mass spectrometry (LC–MS)
row,SMILES,Bacterial Biotransformation
1,CN(CCOc1ccc(CC2SC(=O)NC2=O)cc1)c1ccccn1.O=C(O)/C=C\C(=O)O (configuration not stated) [ROSIGLITAZONE MALEATE],Compound NOT metabolized
2,O=P(O)(O)O.c1ccc(CN(CC2=NCCN2)c2ccccc2)cc1 [ANTAZOLINE PHOSPHATE],Compound NOT metabolized
3,COc1ccc(C(CN(C)C)C2(O)CCCCC2)cc1 (configuration not stated) [VENLAFAXINE],Compound NOT metabolized
